Where two headings read alike, the source gives them in different places.
Key:
[1] = target: human aldose reductase (hALR2) (Homo sapiens, UniProt P15121); test: inhibition of human aldose reductase (hALR2), methods similar to Butera et al.; type: biochemical
Description: Representative compounds of the invention were tested for their potency, selectivity and efficacy as inhibitors of human aldose reductase.

[2] = target: T1, human aldehyde reductase (hALR1) (Homo sapiens, UniProt P14550); test: inhibition of human aldehyde reductase (hALR1), methods essentially of Ishii et al.; type: biochemical; conditions: for IC50: concentration required to inhibit human aldehyde reductase activity by 50%; for hALR1/hALR2: ratio of hALR1 IC50 to hALR2 IC50, selectivity
T1 sequence (P14550 1-325): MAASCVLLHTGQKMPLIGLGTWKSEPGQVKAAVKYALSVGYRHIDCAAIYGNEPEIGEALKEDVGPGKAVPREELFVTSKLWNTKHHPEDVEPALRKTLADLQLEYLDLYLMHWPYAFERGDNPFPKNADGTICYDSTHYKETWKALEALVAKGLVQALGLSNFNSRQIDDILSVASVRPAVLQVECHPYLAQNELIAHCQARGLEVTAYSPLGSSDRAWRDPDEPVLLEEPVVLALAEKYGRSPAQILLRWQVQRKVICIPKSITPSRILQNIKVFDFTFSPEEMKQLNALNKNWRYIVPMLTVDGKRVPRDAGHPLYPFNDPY
Description: In a second assay, a number of the same compounds were tested for their ability to inhibit aldehyde reductase (hAR1), a structurally related enzyme. […] Using this assay, the concentrations required to inhibit human aldehyde reductase activity by 50% (ICSO) were determined.
Since high potency of test compounds as inhibitors of aldose reductase is desirable, low hALR2 IC50 values are sought. On the other hand, high potency of test compounds as inhibitors of aldehyde reductase is undesirable, and high hALR1 IC50s values are sought. Accordingly, the hALR1/hALR2 ratio is used to determine the selectivity of the test compounds.

[3] = concentration required to inhibit human aldose reductase activity by 50%

Structure (SMILES)	IC50 [1, 3]	IC50 [2]	hALR1/hALR2 [2]	further results
Cc1cc(C(=S)NCc2cccc([N+](=O)[O-])c2)c(OCC(=O)O)cc1F [Example 48, [2-(3-Nitro-benzylthiocarbamoyl)-5-fluoro-4-methyl-phenoxy]-acetic acid]	7 nM	–	–	–
O=C(O)COc1cc(F)ccc1C(=S)NCc1ccc(Br)cc1F [Example 33, [2-(4-Bromo-2-fluoro-benzylthiocarbamoyl)-5-fluoro-phenoxy]-acetic acid]	34 nM	33000 nM	970	–
O=C(O)COc1cc(F)c(-c2ccccc2)cc1C(=O)NCc1cccc([N+](=O)[O-])c1 [Example 50, [5-(3-Nitro-benzylcarbamoyl)-2-fluoro-biphenyl-4-yloxy]-acetic acid]	7 nM	14000 nM	2,000	–
CSc1ccc(C(=O)NCc2ccc(Br)cc2F)c(OCC(=O)O)c1 [Example 24, [2-(4-Bromo-2-fluoro-benzylcarbamoyl)-5-methylsulfanyl-phenoxy]-acetic acid]	83 nM	–	–	–
O=C(O)COc1ccc(OC(F)(F)F)cc1C(=O)NCc1cccc([N+](=O)[O-])c1 [Example 26, [2-(3-nitro-benzylcarbamoyl)-4-trifluoromethoxy-phenoxy]-acetic acid]	9 nM	–	–	–
O=C(O)COc1cc(Cl)ccc1C(=O)NCc1cc(F)cc(C(F)(F)F)c1 [Example 11, [5-Chloro-2-(3-fluoro-5-trifluoromethyl-benzylcarbamoyl)-phenoxy]-acetic acid]	29 nM	–	–	–
O=C(O)COc1ccccc1C(=O)NCc1ccc(Br)cc1F [Example 23, [2-(4-Bromo-2-fluoro-benzylcarbamoyl)-phenoxy]-acetic acid]	180 nM	–	–	–
O=C(O)COc1cc(Cl)ccc1C(=O)NCc1cccc([N+](=O)[O-])c1 [Example 5, [2-(3-Nitro-benzylcarbamoyl)-5-chloro-phenoxy]-acetic acid]	–	–	>4,200	IC50 [1]: 6 nM; inhibition at 25 µM ([2]; read-out: hALR1 (aldehyde) % inhibition @ 25 μM): 19%
Cc1ccc(CNC(=O)c2ccc(F)cc2OCC(=O)O)cc1[N+](=O)[O-] [Example 29, [5-Fluoro-2-(4-methyl-3-nitro-benzylcarbamoyl)-phenoxy]-acetic acid]	8 nM	–	–	–
O=C(O)COc1cc(F)ccc1C(=O)NCc1nc2cc(C(F)(F)F)ccc2s1 [Example 56, {5-Fluoro-2-[(5-trifluoromethyl-benzothiazol-2-ylmethyl)-carbamoyl]-phenoxy}-acetic acid]	29 nM	22000 nM	760	–
O=C(O)COc1cc(Cl)ccc1C(=O)NCc1nc2cc(C(F)(F)F)ccc2s1 [Example 57, {5-Chloro-2-[(5-trifluoromethyl-benzothiazol-2-ylmethyl)-carbamoyl]-phenoxy}-acetic acid]	35 nM	–	–	–
O=C(O)COc1cc(F)c(F)cc1C(=O)NCc1ccc(Br)cc1F [Example 30, [2-(4-Bromo-2-fluoro-benzylcarbamoyl)-4,5-difluoro-phenoxy]-acetic acid]	37 nM	–	–	–
O=C(O)COc1ccc([N+](=O)[O-])cc1C(=O)NCc1ccc(Br)cc1F [Example 21, [2-(4-Bromo-2-fluoro-benzylcarbamoyl)-4-nitro-phenoxy]-acetic acid]	200 nM	–	–	–
Cc1ccc(OCC(=O)O)c(C(=O)NCc2cccc([N+](=O)[O-])c2)c1 [Example 25, [2-(3-Nitro-benzylcarbamoyl)-4-methyl-phenoxy]-acetic acid]	11 nM	–	>9,100	inhibition at 100 µM ([2]; read-out: hALR1 (aldehyde) % inhibition @ 100 μM): 48%
O=C(O)COc1cc(F)c(-c2ccccc2)cc1C(=S)NCc1cccc([N+](=O)[O-])c1 [Example 51, [5-(3-Nitro-benzylthiocarbamoyl)-2-fluoro-biphenyl-4-yloxy]-acetic acid]	11 nM	12000 nM	1,100	–
Cc1cc(C(=O)NCc2cccc([N+](=O)[O-])c2)c(OCC(=O)O)cc1F [Example 47, [2-(3-Nitro-benzylcarbamoyl)-5-fluoro-4-methyl-phenoxy]-acetic acid]	8 nM	–	–	–
O=C(O)COc1ccc(Br)cc1C(=S)NCc1ccc(Br)cc1F [Example 34, [4-Bromo-2-(4-bromo-2-fluoro-benzylthiocarbamoyl)-phenoxy]-acetic acid]	37 nM	–	–	–
O=C(O)COc1cc(Cl)ccc1C(=O)NCc1ccc(Cl)c(Cl)c1 [Example 14, [5-Chloro-2-(3,4-dichloro-benzylcarbamoyl)-phenoxy]-acetic acid]	34 nM	18000 nM	530	–

Structure (SMILES)	IC50 [1, 3]	IC50 [2]	hALR1/hALR2 [2]	further results
O=C(O)COc1cc(F)ccc1C(=S)NCc1cccc([N+](=O)[O-])c1 [Example 32, [5-Fluoro-2-(3-nitro-benzylthiocarbamoyl)-phenoxy]-acetic acid]	6 nM	35000 nM	5,800	–
O=C(O)COc1cc(F)c(Br)cc1C(=O)NCc1cccc([N+](=O)[O-])c1 [Example 49, [4-Bromo-5-fluoro-2-(3-nitro-benzylcarbamoyl)-phenoxy]-acetic acid]	6 nM	44000 nM	7,300	–
O=C(O)COc1ccc(F)cc1C(=O)NCc1ccc(Br)cc1F [Example 18, [2-(4-Bromo-2-fluoro-benzylcarbamoyl)-4-fluoro-phenoxy]-acetic acid]	150 nM	–	–	–
O=C(O)COc1cc(F)c(F)cc1C(=S)NCc1ccc(Br)cc1F [Example 36, [2-(4-Bromo-2-fluoro-benzylthiocarbamoyl)-4,5-difluoro-phenoxy]-acetic acid]	33 nM	–	–	–
Cc1cc(C(=O)NCc2ccc(Br)cc2F)c(OCC(=O)O)cc1F [Example 45, [2-(4-Bromo-2-fluoro-benzylcarbamoyl)-5-fluoro-4-methyl-phenoxy]-acetic acid]	24 nM	5800 nM	240	–
O=C(O)COc1cc(Cl)ccc1C(=O)NCc1cccc(C(F)(F)F)c1 [Example 4, [5-Chloro-2-(3-trifluoromethyl-benzylcarbamoyl)-phenoxy]-acetic acid]	39 nM	–	–	–
Cc1cc(C(=S)NCc2ccc(Br)cc2F)c(OCC(=O)O)cc1F [Example 46, [2-(4-Bromo-2-fluoro-benzylthiocarbamoyl)-5-fluoro-4-methyl-phenoxy]-acetic acid]	24 nM	31000 nM	1,300	–
O=C(O)COc1cc(F)ccc1C(=O)NCc1nc2c(F)c(F)cc(F)c2s1 [Example 54, {5-Fluoro-2[(4,5,7-trifluoro-benzothiazol-2-ylmethyl)carbamoyl]-phenoxy}-acetic acid]	11 nM	22000 nM	2,000	–
O=C(O)COc1ccc(OC(F)(F)F)cc1C(=S)NCc1cccc([N+](=O)[O-])c1 [Example 35, [2-(3-Nitro-benzylthiocarbamoyl)-4-trifluoromethoxy-phenoxy]-acetic acid]	12 nM	–	–	–
O=C(O)COc1ccc(Br)cc1C(=O)NCc1ccc(Br)cc1F [Example 19, [4-Bromo-2-(4-bromo-2-fluoro-benzylcarbamoyl)-phenoxy]-acetic acid]	64 nM	–	–	–
O=C(O)COc1cc(F)ccc1C(=O)NCc1ccc(Br)cc1F [Example 28, [2-(4-Bromo-2-fluoro-benzylcarbamoyl)-5-fluoro-phenoxy]-acetic acid]	55 nM	6600 nM	120	–
O=C(O)COc1ccc(Cl)cc1C(=O)NCc1ccc(Br)cc1F [Example 17, [2-(4-Bromo-2-fluoro-benzylcarbamoyl)-4-chloro-phenoxy]-acetic acid]	46 nM	18000 nM	390	–
O=C(O)COc1cc(F)c(N2CCOCC2)cc1C(=O)NCc1cccc([N+](=O)[O-])c1 [Example 53, [2-(3-Nitro-benzylcarbamoyl)-5-fluoro-4-morpholin-4-yl-phenoxy]-acetic acid]	7 nM	54000 nM	–	–
N#Cc1cc(C(=O)NCc2cccc([N+](=O)[O-])c2)c(OCC(=O)O)cc1F [Example 52, [2-(3-Nitro-benzylcarbamoyl)-4-cyano-5-fluoro-phenoxy]-acetic acid]	7 nM	–	–	–
O=C(O)COc1cc(F)ccc1C(=O)NCc1cccc([N+](=O)[O-])c1 [Example 27, [5-Fluoro-2-(3-nitro-benzylcarbamoyl)-phenoxy]-acetic acid]	8 nM	34000 nM	4,300	–
O=C(O)COc1cc(F)ccc1C(=S)NCc1nc2c(F)c(F)cc(F)c2s1 [Example 55, {5-Fluoro-2-[(4,5,7-trifluoro-benzothiazol-2-ylmethyl)-thiocarbamoyl]-phenoxy}-acetic acid]	15 nM	17000 nM	1,100	–
O=C(O)COc1cc(Cl)ccc1C(=O)NCc1ccc(Br)cc1F [Example 1, [2-(4-Bromo-2-fluoro-benzylcarbamoyl)-5-chloro-phenoxy]-acetic acid]	30 nM	14000 nM	470	–
Cc1ccc(OCC(=O)O)c(C(=O)NCc2ccc(Br)cc2F)c1 [Example 20, [2-(4-Bromo-2-fluoro-benzylcarbamoyl)-4-methyl-phenoxy]-acetic acid]	69 nM	11000 nM	160	–
